Experimental data published in article PMC6847993 (Drug Design, Development and Therapy, 2019).

The compounds below were run against XLF (Homo sapiens, UniProt Q9H9Q4) (assay: Thermoshift assay of XLF stability in cells).
Type: cell-based

XLF, sequence (Q9H9Q4 whole entry): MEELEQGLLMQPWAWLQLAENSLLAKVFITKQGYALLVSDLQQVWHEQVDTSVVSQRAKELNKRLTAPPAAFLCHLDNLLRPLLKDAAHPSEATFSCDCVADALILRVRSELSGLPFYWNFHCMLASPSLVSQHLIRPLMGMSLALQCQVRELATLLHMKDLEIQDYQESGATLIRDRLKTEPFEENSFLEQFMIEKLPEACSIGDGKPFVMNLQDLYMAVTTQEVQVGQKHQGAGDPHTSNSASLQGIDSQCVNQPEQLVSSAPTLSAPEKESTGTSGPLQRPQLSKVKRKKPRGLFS

Interaction with XLF (XLF stability), interacted with XLF:
COc1cc(O)cc(CCc2ccc(O)c(OC)c2)c1 [Gigantol, gigantol]
Oc1ccc(/C=C/c2cc(O)cc(O)c2)cc1 [resveratrol]
CC[C@]1(O)C[C@H]2CN(CCc3c([nH]c4ccccc34)[C@@](C(=O)OC)(c3cc4c(cc3OC)N(C=O)[C@H]3[C@@](O)(C(=O)OC)[C@H](OC(C)=O)[C@]5(CC)C=CCN6CC[C@]43[C@@H]65)C2)C1 [vincristine]
